Target: T1, GLUT1 (Homo sapiens, UniProt P11166)
T1 sequence (P11166 1-492): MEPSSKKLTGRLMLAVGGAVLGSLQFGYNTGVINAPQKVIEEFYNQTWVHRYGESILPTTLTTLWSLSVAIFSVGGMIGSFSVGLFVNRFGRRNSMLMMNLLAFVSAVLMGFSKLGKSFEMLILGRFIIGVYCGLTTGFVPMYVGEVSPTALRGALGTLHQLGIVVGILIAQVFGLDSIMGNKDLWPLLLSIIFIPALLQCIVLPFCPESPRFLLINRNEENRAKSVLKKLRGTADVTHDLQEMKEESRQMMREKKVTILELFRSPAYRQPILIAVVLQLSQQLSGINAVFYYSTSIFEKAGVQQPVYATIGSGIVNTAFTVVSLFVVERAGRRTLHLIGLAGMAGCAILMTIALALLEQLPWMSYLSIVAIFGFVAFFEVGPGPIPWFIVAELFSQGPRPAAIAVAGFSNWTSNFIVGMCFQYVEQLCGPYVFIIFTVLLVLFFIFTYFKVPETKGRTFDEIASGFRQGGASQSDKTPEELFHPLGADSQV
Assay: not given
Settings: substrates and inhibitors of GLUT1; cited from earlier work

Row | Molecule | Reported Affinity for GLUT1
1 | O=C1O[C@H]([C@@H](O)CO)C(=O)C1=O [Dehydroascorbic Acid] | 0.8 mM
2 | O=C[C@H](O)[C@@H](O)[C@@H](O)[C@H](O)CO [Galactose] | 4 mM
3 | N[C@H]1C(O)O[C@H](CO)[C@@H](O)[C@@H]1O (stereo partly shown) [Glucosamine] | 9 mM
4 | O=C(CCc1ccc(O)cc1)c1c(O)cc(O)cc1O [Phloretin] | 0.05 mM
5 | (S)-methoxy-a-methyl-2-napthalene acetic acid amido galacto pyranose | 1 mM
6 | Fluorodeoxyglucose | 4 mM

Target: T1, GLUT1
Assay: Uptake of 3H-glucose by GLUT1 expressed in Xenopus oocytes
Type: cell-based
Set-up: expressed in transfected cells; host or cells: Xenopus oocytes (defolliculated), injected with in vitro transcribed GLUT1 cRNA
Settings: Xenopus oocytes injected with GLUT1 cRNA
Experimental: To assess transport function of a specific transporter protein, it can be desirable to clone the cDNA and express the protein in cells that have low endogenous transport activity. Human GLUT1 was cloned by PCR, fully sequenced, and subcloned into plasmids that can be used for expression in mammalian cells or Xenopus oocytes. […] For expression in Xenopus oocytes, in vitro GLUT1 cRNA was prepared and injected into defoliculated oocytes. […]

Row | 3H-glucose uptake versus noninjected controls | Molecule
7 | higher levels | O=C[C@H](O)[C@@H](O)[C@H](O)[C@H](O)CO [^3H-glucose]
